{
  "source": "patent US6309842A",
  "about": "“Use of modified tethers in screening compound libraries” (Glaxo Wellcome Inc., priority 1997, dated 2001)",
  "key": {"[1]": {"biological_target": "RARa (Retinoic Acid Receptor alpha) (Homo sapiens, UniProt P10276)", "sequence (P10276 whole entry, the tested form may be a part)": "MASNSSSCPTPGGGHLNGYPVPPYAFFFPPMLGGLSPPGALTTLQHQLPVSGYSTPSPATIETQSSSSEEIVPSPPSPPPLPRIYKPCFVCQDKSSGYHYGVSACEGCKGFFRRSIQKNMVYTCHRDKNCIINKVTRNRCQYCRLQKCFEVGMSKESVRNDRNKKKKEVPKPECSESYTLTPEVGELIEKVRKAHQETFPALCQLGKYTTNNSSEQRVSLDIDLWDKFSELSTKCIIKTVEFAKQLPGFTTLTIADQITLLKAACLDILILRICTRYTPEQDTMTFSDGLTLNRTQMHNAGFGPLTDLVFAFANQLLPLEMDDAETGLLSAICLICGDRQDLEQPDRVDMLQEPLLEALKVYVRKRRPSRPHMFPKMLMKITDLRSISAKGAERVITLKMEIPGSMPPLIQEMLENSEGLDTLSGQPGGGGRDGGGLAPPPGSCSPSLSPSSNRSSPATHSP", "assay": "Gal4 DNA binding domain/RARa fusion with 5x UAS-tk-SEAP reporter in CHOK1 cells", "experimental": "The Gal4 DNA response element (5× UAS) was cloned upstream of the SEAP reporter gene, driven by the tk promoter, into the pGL3 vector (Promega). The pSG5 vector (Stratagene) was used to clone a Gal4 DNA Binding Domain/RARa (Retinoic Acid Receptor alpha)(carboxy end) fusion. These two plasmids were simultaneously transiently lipofected into CHOK1 cells using with Lipofectamine (Gibco BRL). The lipofected cells were seeded into individual wells on 2, 96-well culture plates (Falcon). The cells were grown for 16 hr in 100 μl/well Optimem Media (Gibco) with 10% dilapidated serum (Sigma) that was heat treated at 65° C. for 45 minutes before adding to the media. Serum was heated to inactivate endogenous phosphatases. After 16 hr growth at 37° C., there were 10^4 cells/well. Cells in one plate were stimulated with 1 μM retinoic acid; the cells in the other plate were not stimulated. Media was the same. The plates were incubated in the 37° C. cell culture incubator for another 24 hr. The supernatants were removed from the individual wells on the plates. All supernatants from stimulated cells were pooled; all supernatants from nonstimulated cells were pooled. Both were stored at 4° C. overnight. The cells were discarded.\nThe next day, 100 μl of each supernatant was tested for SEAP activity using the Tropix Chemiluminescent Assay Kit, as before."}, "IL-1RFc": {"system": "IL-1RFc", "assay": "Competition assay, IL-1RFc held on reservoir beads, released AP activity", "type": "binding", "conditions": "beads coated with streptavidin or biotin-MBP-AF12413", "text": "This example uses two classes of beads referred to as reservoir beads and library beads. The reservoir beads have receptor immobilized via a known ligand. The library beads have compounds to be screened, identifier tags and tethers as before. A compound released from a library bead competes a labelled receptor from a reservoir bead, and the labelled receptor, directly or indirectly, modifies a tether on proximate library beads. Both sets of beads can be added to nanowells for performing the assay.\n500 μl beads (Polysciences, Inc., 2.5% Solids-latex, 2 μm) were washed twice with PBS, resuspended in 1 ml of PBS and split into 5 tubes (a, b, c, d, e). 300 μl 1 mg/ml coating protein was added per tube and incubated at 37° C. for 3 hr on shaker. The beads were washed with PBT. Coating proteins were added in the five tubes as follows: a. BSA-Biotin (Sigma), b. BSA (LC)-Biotin (Sigma), c. Hemocyanin-Biotin (Sigma), d. Streptavidin (Gibco BRL), e. Biotin-MBP-AF12413 [[…](biotin)[…] (SEQ ID NO:30)-maltose binding protein-[…] (SEQ ID NO:31)].\nThe beads were blocked with 1 ml PBT and incubated at room temperature overnight on shaker and washed with PBT. 300 μl of 1 mg/ml streptavidin and 1.2 ml PBT were added to a, b, c, tubes, which were incubated at; 37° C. for 1 hour on shaker. The tubes were washed twice in PBS. […]"}, "IL-1R": {"biological_target": "T1, IL-1R (Homo sapiens, UniProt P14778)", "T1 sequence (P14778 18-569)": "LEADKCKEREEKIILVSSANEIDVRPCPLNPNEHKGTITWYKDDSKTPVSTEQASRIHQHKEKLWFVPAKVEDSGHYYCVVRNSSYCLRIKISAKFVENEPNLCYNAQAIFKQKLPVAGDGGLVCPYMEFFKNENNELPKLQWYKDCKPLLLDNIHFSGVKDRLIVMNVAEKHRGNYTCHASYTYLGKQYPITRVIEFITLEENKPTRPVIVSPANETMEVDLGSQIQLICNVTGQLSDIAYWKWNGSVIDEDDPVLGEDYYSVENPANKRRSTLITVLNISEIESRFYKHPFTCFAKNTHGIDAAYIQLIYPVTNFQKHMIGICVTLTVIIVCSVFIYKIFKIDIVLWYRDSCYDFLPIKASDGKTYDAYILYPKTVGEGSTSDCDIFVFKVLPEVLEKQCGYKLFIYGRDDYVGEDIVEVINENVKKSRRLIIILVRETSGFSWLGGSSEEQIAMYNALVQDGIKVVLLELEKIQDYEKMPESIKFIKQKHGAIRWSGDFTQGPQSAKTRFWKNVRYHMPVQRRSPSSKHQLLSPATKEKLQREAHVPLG", "assay": "IL-1R binding assay"}},
  "data": [
    {"compound": "CC1=C(/C=C/C(C)=C/C=C/C(C)=C/C(=O)O)C(C)(C)CCC1", "note": "[retinoic acid]", "values": [
      {"measurement": "SEAP produced in supernatant", "setting": "[1]; 1 μM retinoic acid, 24 hr stimulation", "result": "about 0.52 units of SEAP/ml"},
      {"measurement": "fold induction at 1 µM", "setting": "[1]; CHO-K1, 24 h, read-out: Increase in SEAP production upon stimulation", "result": 126}
    ]},
    {"compound": "NH2-YEWTPGYYQJY-NH2 [AF12304]", "values": [
      {"measurement": "Signal of released AP activity", "setting": "IL-1RFc", "result": "only background signals"},
      {"measurement": "IC50", "setting": "IL-1R", "result": "~2", "unit": "nM"}
    ]}
  ]
}
